Measurements: patent EP0384594A1, “Anti-inflammatory aryl derivatives” (THE WELLCOME FOUNDATION LIMITED, priority 1989, dated 1990)
Where two headings read alike, the source gives them in different places.

Experiments:
5-lipoxygenase [1] = molecular target: T1, 5-lipoxygenase (Homo sapiens, UniProt P09917); test: In vitro inhibition of 5-lipoxygenase, ionophore-stimulated whole human blood; format: cell-based; conditions: read-out: IC₅₀ Whole blood
T1 construct: The experiment was repeated using ionophore-stimulated whole human blood; endogenous in cells; host or cells: whole human blood (blood leukocytes)
T1 sequence (P09917 1-674): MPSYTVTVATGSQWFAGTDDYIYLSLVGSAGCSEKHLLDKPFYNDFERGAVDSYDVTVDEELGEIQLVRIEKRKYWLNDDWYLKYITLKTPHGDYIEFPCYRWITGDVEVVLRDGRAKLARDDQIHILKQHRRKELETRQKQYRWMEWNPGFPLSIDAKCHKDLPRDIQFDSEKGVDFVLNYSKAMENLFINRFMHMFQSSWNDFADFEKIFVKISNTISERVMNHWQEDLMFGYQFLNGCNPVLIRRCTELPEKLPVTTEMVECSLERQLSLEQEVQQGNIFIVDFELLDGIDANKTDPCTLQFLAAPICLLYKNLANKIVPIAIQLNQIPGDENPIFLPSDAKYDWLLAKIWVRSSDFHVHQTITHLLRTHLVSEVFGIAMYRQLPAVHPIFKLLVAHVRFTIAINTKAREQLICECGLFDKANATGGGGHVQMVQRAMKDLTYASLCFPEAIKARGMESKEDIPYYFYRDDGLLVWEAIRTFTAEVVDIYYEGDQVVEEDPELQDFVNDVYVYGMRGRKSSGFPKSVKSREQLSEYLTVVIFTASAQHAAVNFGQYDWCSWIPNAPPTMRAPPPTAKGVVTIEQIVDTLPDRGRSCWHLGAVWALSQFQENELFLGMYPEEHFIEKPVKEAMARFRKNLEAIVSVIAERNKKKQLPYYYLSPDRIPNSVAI
Protocol: Blood from normal aspirin-free volunteers was centrifuged to separate leukocytes from red cells and platelets. A solution of the test compound in DMSO (10µl, final concentration in the range 0.01 - 100µM) was added to cell homogenate (470µl) and the mixture incubated at 37 °C for 5 minutes. Solutions of arachidonic acid in methanol (250µM, 10µl, final concentration 5µM) and calcium chloride in water (100mM, 10µl, final concentration 2mM) were then added simultaneously and the mixture incubated at 37 °C for a further 5 minutes. The reaction was stopped by boiling. Radioimmunoassay was conducted for leukotriene B₄.
The experiment was repeated using ionophore-stimulated whole human blood.

5-lipoxygenase [2] = test: Ex vivo inhibition of 5-lipoxygenase (stimulated LTB4 synthesis in blood after dosing), rabbits; conditions: for inhibition of the stimulated ex vivo synthesis of leukotriene B₄ (LTB₄), result in words: rabbits, preliminary studies
Protocol: After administration of the test compound, the concentration of LTB₄ in the plasma was measured periodically and expressed as a percentage of the mean control value. The procedure used is described in Br. J. Pharmacol. 94, 528 (1988) and may be summarised as follows. Within 2 minutes of collection, duplicate samples (0.5ml) of blood were stimulated with the calcium ionophore A23187 (final concentration 15µg/ml) for 30 minutes at 37 °C. When incubation was complete, the samples were centrifuged (12,000G for 2 minutes) and the cell-free plasma removed. The plasma concentration of LTB₄ was then determined by specific radioimmunoassay. The compounds of Synthetic Examples 1 to 3 all inhibited the stimulated ex vivo synthesis of LTB₄ for several hours after their administration. The compound of Synthetic Example 1, for example, when administered orally to rabbits at a dose of 2mg/kg inhibited LTB₄ synthesis by more than 50% for a period of greater than 16 hours. The same compound when administered orally to rats at a dose of 10mg/kg inhibited LTB₄ synthesis by more than 50% for longer than 10 hours.

mice = format: in vivo
Protocol: The compound of Synthetic Example 1 was administered to mice per orally at doses of up to 300mg/kg and intraperitoneally at doses of up to 100mg/kg.

[3] = Anti-oxidant activity: peroxyl radical scavenging, inhibition of peroxidation of linoleic acid
Protocol: As a measure of anti-oxidant activity, the peroxyl radical scavenging abilities of the compounds of the invention were determined by testing each compound's ability to inhibit the peroxidation of linoleic acid using the method described in Biochem. Pharm. 38, 1465 (1989).

[4] = tested on: Male New Zealand White rabbits; test: Combination effects with an NSAID: antigen (ovalbumin)-induced arthritis of the knee joint in rabbits; format: in vivo; conditions: for proteoglycan loss from the cartilage, result in words / PROTEOGLYCAN LOSS: 14 days after antigen challenge; for mean leukocyte infiltrate in the synovial fluid, result in words / LEUKOCYTES (CELL NUMBER x 10⁶): 14 days after challenge; for PROTEOGLYCAN LOSS: articular cartilage of arthritic joint versus contralateral joint; for JOINT SWELLING: oral x3/24h: compound A 2mg/kg, indomethacin 1mg/kg; for reduced swelling compared to the vehicle-treated controls: from day 3 onwards, maximum reduction; for Lymphocytes / Total cells: histological evaluation of synovial lining; for LEUKOCYTES (CELL NUMBER x 10⁶): synovial fluid of arthritic joint
Protocol: Male New Zealand White rabbits (2.5 - 3kg) were immunised with intradermal injections of 4mg of ovalbumin in 1ml of Freund's complete adjuvant. Animals were reimmunised 14 days later in the same way. Five days after the second immunisation, arthritis was induced in the right knee joint by injecting 1ml of a sterile solution of ovalbumin (5mg/ml) into the joint cavity. Joint diameters were measured (on a randomised blind basis) with calipers at frequent intervals after antigen challenge. Animals were killed after 14 days and the joint space was washed with 1ml of saline and the resultant fluid was taken for total and differential leukocyte counts. Sensitised animals were randomly allocated to groups of 5-8. The compound of Synthetic Example 1, (E)-N-{1-Methyl-3-[3-(4-fluorophenoxy)phenyl]prop-2-en-1-yl}-N-hydroxyurea (compound A), was administered in suspension following 18h ball-milling in 0.25% Celacol as vehicle. The non-steroidal anti-inflammatory indomethacin was dissolved in a small volume of 1M Tris buffer pH8 and then made up to volume with 0.25% Celacol. Control animals received 0.25% Celacol. Each animal received an oral dose (approximately 5ml) of vehicle or drug 3 times every 24h. Doses were administered at 8.0am, 4.0pm and 12 midnight for 16-17 days commencing 1h before antigen challenge on day 0. All doses were given orally by stomach tube. The groups were as follows: 1-7: Controls (5ml 0.25% Celacol x3/24h) 8-14: 1mg/kg indomethacin dissolved in 0.25% Celacol x3/24h 15-21: 2mg/kg compound A suspended in 0.25% Celacol x3/24h 22-28: 2mg/kg compound A suspended in 0.25% Celacol plus 1mg/kg indomethacin dissolved in 0.25% Celacol Synovial lining tissue was removed from the joint, fixed, processed, cut and stained for microscopic examination. Histological scores were derived for the total mass of inflamed synovial lining, lymphocyte infiltration and polymorph content. The slides were read on a randomised blind basis. Articular cartilage was dissected from the ends of the femurs and digested with papain prior to measurement of the concentration of sulphated glycosaminoglycans (GAGs). The proteoglycan content was expressed as µg GAG/mg wet weight of cartilage and compared with values obtained with cartilage from the contralateral control joint.

5-lipoxygenase [5] = molecular target: T2, 5-lipoxygenase (Rattus norvegicus, UniProt P12527); test: Ex vivo inhibition of 5-lipoxygenase (stimulated LTB4 synthesis in blood after dosing), rats; conditions: po, administered orally to rats, ex vivo A23187-stimulated blood, read-out: inhibited LTB₄ synthesis
T2 construct: endogenous in cells; host or cells: whole blood of dosed rats (blood leukocytes)
T2 sequence (P12527 1-673): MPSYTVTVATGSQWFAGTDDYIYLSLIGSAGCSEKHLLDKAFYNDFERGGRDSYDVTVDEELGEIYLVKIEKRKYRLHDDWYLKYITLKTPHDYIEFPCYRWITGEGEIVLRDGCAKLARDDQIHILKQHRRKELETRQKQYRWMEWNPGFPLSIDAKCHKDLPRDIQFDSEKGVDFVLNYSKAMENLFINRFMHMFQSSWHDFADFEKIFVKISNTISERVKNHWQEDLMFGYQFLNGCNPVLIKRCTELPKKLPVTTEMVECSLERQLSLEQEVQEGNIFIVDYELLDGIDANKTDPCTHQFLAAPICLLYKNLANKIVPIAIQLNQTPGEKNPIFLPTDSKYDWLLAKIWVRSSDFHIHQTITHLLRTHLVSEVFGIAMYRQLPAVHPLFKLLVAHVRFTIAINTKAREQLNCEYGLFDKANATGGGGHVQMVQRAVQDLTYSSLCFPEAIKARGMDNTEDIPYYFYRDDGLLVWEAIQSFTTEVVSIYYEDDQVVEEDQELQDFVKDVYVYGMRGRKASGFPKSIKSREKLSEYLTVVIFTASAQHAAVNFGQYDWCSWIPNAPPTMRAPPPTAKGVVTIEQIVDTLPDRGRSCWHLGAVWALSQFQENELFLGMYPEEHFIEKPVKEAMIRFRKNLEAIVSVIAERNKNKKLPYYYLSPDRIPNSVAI
Protocol: After administration of the test compound, the concentration of LTB₄ in the plasma was measured periodically and expressed as a percentage of the mean control value. The procedure used is described in Br. J. Pharmacol. 94, 528 (1988) and may be summarised as follows.
Within 2 minutes of collection, duplicate samples (0.5ml) of blood were stimulated with the calcium ionophore A23187 (final concentration 15µg/ml) for 30 minutes at 37 °C. When incubation was complete, the samples were centrifuged (12,000G for 2 minutes) and the cell-free plasma removed. The plasma concentration of LTB₄ was then determined by specific radioimmunoassay.
The compounds of Synthetic Examples 1 to 3 all inhibited the stimulated ex vivo synthesis of LTB₄ for several hours after their administration. The compound of Synthetic Example 1, for example, when administered orally to rabbits at a dose of 2mg/kg inhibited LTB₄ synthesis by more than 50% for a period of greater than 16 hours. The same compound when administered orally to rats at a dose of 10mg/kg inhibited LTB₄ synthesis by more than 50% for longer than 10 hours.

[6] = duration of arthritis 14 (days)

| Compound | IC50 (5-lipoxygenase [1]) [nM] | inhibition of the stimulated ex vivo synthesis of leukotriene B₄ (LTB₄), result in words (5-lipoxygenase [2]) | deaths or serious deleterious effects (mice; intraperitoneally, doses of up to 100mg/kg) | deaths or serious deleterious effects (mice; per orally, doses of up to 300mg/kg) | period for which LTB₄ synthesis was inhibited by more than 50% (5-lipoxygenase [2]; administered orally to rabbits, 2mg/kg) | inhibited LTB₄ synthesis (5-lipoxygenase [2]; administered orally to rabbits, 2mg/kg, ex vivo A23187-stimulated blood) | apparent rate constant (kAH) for scavenging peroxyl radicals [3] | proteoglycan loss from the cartilage, result in words [4] | mean leukocyte infiltrate in the synovial fluid, result in words [4] | PROTEOGLYCAN LOSS [4] [%] | JOINT SWELLING ([4]; duration of arthritis 1 (day)) [MM] | JOINT SWELLING ([4]; duration of arthritis 2 (days)) [MM] | JOINT SWELLING ([4]; duration of arthritis 3 (days)) [MM] | JOINT SWELLING ([4]; duration of arthritis 8 (days)) [MM] | JOINT SWELLING [4, 6] [MM] | reduced swelling compared to the vehicle-treated controls [4] | Lymphocytes [4] | Total cells [4] | LEUKOCYTES (CELL NUMBER x 10⁶) [4] [x 10⁶] | inhibition at 10 mg/kg (5-lipoxygenase [5]) [%] |
| --- | --- | --- | --- | --- | --- | --- | --- | --- | --- | --- | --- | --- | --- | --- | --- | --- | --- | --- | --- | --- |
| C[C@H](/C=C/c1cccc(Oc2ccc(F)cc2)c1)N(O)C(N)=O [Synthetic Example 2, (E)-N-{3-[3-(4-fluorophenoxy)phenyl]-1(R)-methylprop-2-en-1-yl}-N-hydroxyurea] | 80 | effectively inhibited | – | – | – | – | – | – | – | – | – | – | – | – | – | – | – | – | – | – |
| C[C@@H](/C=C/c1cccc(Oc2ccc(F)cc2)c1)N(O)C(N)=O [Synthetic Example 3, (E)-N-{3-[3-(4-fluorophenoxy)phenyl]-1(S)-methylprop-2-en-1-yl}-N-hydroxyurea] | 80 | effectively inhibited | – | – | – | – | – | – | – | – | – | – | – | – | – | – | – | – | – | – |
| CC(/C=C/c1cccc(Oc2ccc(F)cc2)c1)N(O)C(N)=O (racemic) [Synthetic Example 1, (E)-N-{3-[3-(4-fluorophenoxy)phenyl]-1(R,S)-methylprop-2-en-1-yl}-N-hydroxyurea] | 150 | effectively inhibited | No deaths or serious deleterious effects | No deaths or serious deleterious effects | greater than 16 hours | more than 50% | 0.408 | reduced proteoglycan loss | slightly reduced | 34 | 4.6 | 5.2 | 4.6 | 3.5 | 3.2 | up to 26% | 59 | 367 | 6.1 | > 50 |
| COc1ccc2c(c1)c(CC(=O)O)c(C)n2C(=O)c1ccc(Cl)cc1 [Indomethacin, indomethacin, reference compound] | – | – | – | – | – | – | – | reduced proteoglycan loss | slightly reduced | 38 | 4.3 | 4.5 | 3.5 | 2.6 | 2.0 | up to 53% | 51 | 365 | 7.3 | – |
